The source of these data is US20210198647A1, “Enhancers of Neurolysin Activity” (Texas Tech University System, priority 2018, published 2021).

The target in this test is T1, Neurolysin (Nln) (Rattus norvegicus, UniProt P42676).
T1 construct: polyhistidine (N); made in house; host or cells: Escherichia coli (pBAD/His vector), if the rat enzyme of b61 was used
Kind of test: Nln activation in isolated enzyme assay (A50, Amax). Type of test: biochemical. As to conditions: for pEC50: read-out: A50 (concentration required to activate Nln by 50%).

[1] abbreviates: 100% = normal enzyme turnover, 95% CI in parentheses.

pEC50: −log10 of the molar value. Several values for one entry are separate records, joined by “and”; a condition that tells them apart may be missing. Equal entries are not always repeated. Where two headings read alike, the source gives them in different places. Square brackets hold non-standard residues; d marks the D form. Peptide text beside a SMILES is read from it. * marks the point of attachment. NHPhenethyl = c1ccc(CCN*)cc1; Boc = CC(C)(C)OC(=O)*

T1 sequence (P42676 38-704): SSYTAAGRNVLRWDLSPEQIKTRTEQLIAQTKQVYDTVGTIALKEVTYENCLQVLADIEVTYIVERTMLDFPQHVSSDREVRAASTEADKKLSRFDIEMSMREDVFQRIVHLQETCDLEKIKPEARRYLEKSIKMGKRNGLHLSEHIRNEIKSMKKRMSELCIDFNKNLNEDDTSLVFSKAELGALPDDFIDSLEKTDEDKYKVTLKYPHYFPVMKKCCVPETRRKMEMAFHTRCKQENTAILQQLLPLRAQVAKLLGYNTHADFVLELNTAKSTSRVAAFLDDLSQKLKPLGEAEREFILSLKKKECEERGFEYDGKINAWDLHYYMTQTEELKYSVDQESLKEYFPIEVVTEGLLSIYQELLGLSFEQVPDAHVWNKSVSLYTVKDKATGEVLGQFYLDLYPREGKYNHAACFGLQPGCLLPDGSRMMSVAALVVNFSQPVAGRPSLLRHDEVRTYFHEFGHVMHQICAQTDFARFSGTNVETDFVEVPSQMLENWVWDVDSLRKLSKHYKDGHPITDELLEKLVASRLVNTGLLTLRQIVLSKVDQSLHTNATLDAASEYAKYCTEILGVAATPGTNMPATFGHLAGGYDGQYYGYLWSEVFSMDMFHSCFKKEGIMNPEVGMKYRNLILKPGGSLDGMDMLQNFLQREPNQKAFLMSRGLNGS

Turning to `N[C@H](Cc1cnc[nH]1)C(=O)NCc1cccc(C(F)(F)F)c1` [AB-1-9-2], the “Amax (maximum % activation achieved)” value is recorded as 184.4 (169.4 to 201.5) %.
For `N[C@H](Cc1c[nH]cn1)C(=O)NCCc1cc2ccccc2[nH]1` [SR-8-2d], the “Amax (maximum % activation achieved)” value was 132 (122.5 to 143.6) %.
Regarding `N[C@@H](Cc1c[nH]cn1)C(=O)NCc1cccc2ccccc12` [SR-9-1d], the “Amax (maximum % activation achieved)” value under setting [1] was 264 (256.3 to 272.6) %.
With `N[C@@H](Cc1c[nH]cn1)C(=O)NCCc1ccc(F)cc1` [Compound 4m, (S)-2-amino-N-(4-fluorophenethyl)-3-(1H-imidazol-4-yl)propanamide], the pEC50 (95% CI in parentheses) is 4.55. In addition, the “Amax (maximum % activation achieved)” value under setting [1] is 323.1 (311.4 to 335.6) %.
Take `N[C@@H](Cc1c[nH]cn1)C(=O)NCc1ccccc1` [DF-3-2B]: the “Amax (maximum % activation achieved)” value is listed as 152.2 (137.3 to 171.5) %.
Regarding `N[C@H](Cc1c[nH]cn1)C(=O)NCCc1ccc(C(F)(F)F)cc1` [Compound 4l, (R)-2-amino-3-(1H-imidazol-4-yl)-N-(4-(trifluoromethyl)phenethyl)propanamide], the “Amax (maximum % activation achieved)” value is listed as 330.1 (313.9 to 347.7) %.
In the case of `N[C@@H](Cc1c[nH]cn1)C(=O)NCc1ccc(F)cc1` [DF-6-2A], the “Amax (maximum % activation achieved)” value is on record as 252 (235.6 to 270.5) %.
As for `N[C@@H](Cc1c[nH]cn1)C(=O)NCc1ccc(SC(F)(F)F)cc1` [Compound 5r], the “Amax (maximum % activation achieved)” value was 287.5 (277.4 to 298.4) %.
The same measure, in the same setting: to `N[C@H](Cc1c[nH]cn1)C(=O)NCCc1ccccc1C(F)(F)F` [HP2CF3] belongs 396.2 (384.5 to 408.5) %.
For the compound `COc1ccc(CCNC(=O)[C@@H](N)Cc2c[nH]cn2)cc1` [Compound 4e, (S)-2-amino-3-(1H-imidazol-4-yl)-N-(4-methoxyphenethyl)propanamide], the “Amax (maximum % activation achieved)” value under setting [1] is 339.4 (314.2 to 369.3) %.
For `N[C@@H](Cc1c[nH]cn1)C(=O)NCc1cccc(C(F)(F)F)c1` [AB-1-6-2], the “Amax (maximum % activation achieved)” value is given as 494.4 (476.7 to 512.9) %.
Same read-out and setting: with `COc1cccc(CNC(=O)[C@H](N)Cc2cnc[nH]2)c1` [AB-1-14-2] the figure was 477.1 (444 to 516) %; with `COc1ccccc1CNC(=O)[C@@H](N)Cc1c[nH]cn1` [Compound 5d], 385.8 (363.8 to 410.5) %.
As to `CC(C)(C)OC(=O)N[C@@H](Cc1c[nH]cn1)C(=O)N[C@H](Cc1ccccc1)C(=O)O` [Compound 4b] (Boc-His-[dF]-OH), the “Nln activation (in words)” value was “inactive”.
On to `N[C@H](Cc1c[nH]cn1)C(=O)NCCCCc1ccccc1` [Compound 8b, (R)-2-amino-3-(1H-imidazol-4-yl)-N-(4-phenylbutyl)propanamide], for which the “Amax (maximum % activation achieved)” value under setting [1] was 233.8 (215.9 to 254.8) %.
Turning to `N[C@H](Cc1c[nH]cn1)C(=O)NCCc1ccccc1` [Compound 4d, (R)-2-amino-3-(1H-imidazol-4-yl)-N-phenethylpropanamide], the “Amax (maximum % activation achieved)” value under setting [1] is recorded as 294.6 (278.0 to 313) %.
As for `N[C@@H](Cc1ccccn1)C(=O)NCCc1ccccc1` [AB-1-3-2], for the setting “95% CI in parentheses”, the “A50 (concentration required to activate Nln by 50%)” value was “Inactive”. Besides, under setting [1], the “Amax (maximum % activation achieved)” value is “Inactive”.
On to `O=C(CCc1cnc[nH]1)NCCc1c[nH]c2ccccc12` [PT-1-177], for which the “A50 (concentration required to activate Nln by 50%)” value (95% CI in parentheses) is “Inactive”. Further, the “Amax (maximum % activation achieved)” value under setting [1] was “Inactive”.
Consider `N[C@H](Cc1c[nH]cn1)C(=O)NCc1cccc2ccccc12` [Compound 10d, (R)-2-amino-3-(1H-imidazol-4-yl)-N-(naphthalen-1-ylmethyl)propanamide], for which the “Amax (maximum % activation achieved)” value under setting [1] is given as 343 (325.2 to 363.5) %.
Regarding `N[C@H](Cc1c[nH]cn1)C(=O)NCc1ccccc1C(F)(F)F` [Compound 5k, (R)-2-amino-3-(1H-imidazol-4-yl)-N-(2-(trifluoromethyl)benzyl)propanamide], the “Amax (maximum % activation achieved)” value is 345.8 (317.5 to 378.3) %.
Turning to `N[C@H](C(=O)N1CCC[C@H]1C(=O)O)c1c[nH]cn1` [His-Pro], the “Amax (maximum % activation achieved)” value is on record as 502 (488.4 to 515.7) %.
For `N[C@H](Cc1c[nH]cn1)C(=O)NCc1ccc(C(F)(F)F)cc1` [Compound 5i, (R)-2-amino-3-(1H-imidazol-4-yl)-N-(4-(trifluoromethyl)benzyl)propanamide], the “Amax (maximum % activation achieved)” value is given as 319.1 (296.3 to 344.3) %.
On to `N[C@H](Cc1c[nH]cn1)C(=O)NCc1cccc(C(F)(F)F)c1` [Compound 5m], for which the “Amax (maximum % activation achieved)” value is 282 (258.4 to 309.1) %.
For `N[C@@H](Cc1c[nH]cn1)C(=O)N[C@H](Cc1c[nH]cn1)C(=O)O` [Compound 2], the “Amax (maximum % activation achieved)” value under setting [1] is 202.8 (192.2 to 213.4) %.
As for `N[C@@H](Cc1c[nH]cn1)C(=O)NCc1ccc(F)cc1` [Compound 5n, (S)-2-amino-N-(4-fluorobenzyl)-3-(1H-imidazol-4-yl)propanamide], the “Amax (maximum % activation achieved)” value is 293 (276.5-310.7) %.
`COc1ccc(CNC(=O)[C@@H](N)Cc2c[nH]cn2)cc1` [SR20-1d]: the “Amax (maximum % activation achieved)” value was 428.8 (373 to 523.5) %.
Consider `COc1ccccc1CNC(=O)[C@H](N)Cc1c[nH]cn1` [SR16-1d], for which the “Amax (maximum % activation achieved)” value is given as 324.9 (304 to 349) %.
Same read-out and setting: to `N[C@@H](Cc1c[nH]cn1)C(=O)NCCc1ccc(C(F)(F)F)cc1` [AB 3-2-2] belongs 438.4 (379.4 to 520.4) %.
Consider `CC(C)(C)OC(=O)N[C@@H](Cc1c[nH]cn1)C(=O)NCCc1ccccc1`, for which the “A50 (concentration required to activate Nln by 50%)” value (95% CI in parentheses) is “Inactive”. Moreover, the “Amax (maximum % activation achieved)” value under setting [1] is on record as “Inactive”.
For `COc1ccc(CCNC(=O)[C@H](N)Cc2c[nH]cn2)cc1` [Compound 4f, (R)-2-amino-3-(1H-imidazol-4-yl)-N-(4-methoxyphenethyl)propanamide], under setting [1], the “Amax (maximum % activation achieved)” value is 378.3 (350.5 to 411.9) %.
With `N[C@@H](Cc1c[nH]cn1)C(=O)NCCc1ccccc1` [Compound 4c, (S)-2-amino-3-(1H-imidazol-4-yl)-N-phenethylpropanamide], under setting [1], the “Amax (maximum % activation achieved)” value is given as 337.2 (302-378.6) %.
`N[C@@H](Cc1c[nH]cn1)C(=O)Nc1ccccc1` [Compound 6a, (S)-2-amino-3-(1H-imidazol-4-yl)-N-phenylpropanamide]: the pEC50 (95% CI in parentheses) was 3.60. For the same compound, the “Amax (maximum % activation achieved)” value under setting [1] was 467% and 466.6%.
For the compound `CC(C)(C)OC(=O)N[C@@H](Cc1c[nH]cn1)C(=O)NCCc1cc2ccccc2[nH]1` [PT-1-172], where the note is “95% CI in parentheses”, the “A50 (concentration required to activate Nln by 50%)” value was “Inactive”. The “Amax (maximum % activation achieved)” value under setting [1] is “Inactive”.
Take `N[C@H](Cc1c[nH]cn1)C(=O)NCCCc1ccccc1` [Compound 7b, (R)-2-amino-3-(1H-imidazol-4-yl)-N-(3-phenylpropyl)propanamide]: the “Amax (maximum % activation achieved)” value under setting [1] is on record as 281.8 (269.9-294.5) %.
With `N[C@@H](Cc1c[nH]cn1)C(=O)NCc1ccc(C(F)(F)F)cc1` [DF-8-2], the “Amax (maximum % activation achieved)” value is given as 305.2 (285.3 to 328) %.
Take `N[C@H](Cc1c[nH]cn1)C(=O)NCCc1ccccc1` [AB-2-7-2]: the “Amax (maximum % activation achieved)” value under setting [1] was 407 (382.7 to 434.9) %.
On the same count and under the same terms, with `N[C@H](Cc1c[nH]cn1)C(=O)Nc1cccc2cccnc12` [Compound 11b, (R)-2-amino-3-(1H-imidazol-4-yl)-N-(quinolin-8-yl)propanamide] the figure was 255.2 (239.9 to 278.9) %.
As to `N[C@H](Cc1c[nH]cn1)C(=O)NCc1ccc2ccccc2c1` [Compound 10b, (R)-2-amino-3-(1H-imidazol-4-yl)-N-(naphthalen-2-ylmethyl)propanamide], the pEC50 (95% CI in parentheses) was 5.20. Under setting [1], the “Amax (maximum % activation achieved)” value is reported as 197.5 (184.9 to 214.8) %.
With `N[C@H](Cc1c[nH]cn1)C(=O)NCc1ccc(C(F)(F)F)cc1` (single isomer, unassigned) [AB1-17-2], the “Amax (maximum % activation achieved)” value is listed as 598.8 (532.8 to 692.9) %.
As to `CC(C)(C)OC(=O)N[C@@H](Cc1c[nH]cn1)C(=O)NCCc1c[nH]c2ccccc12`, the “A50 (concentration required to activate Nln by 50%)” value (95% CI in parentheses) is given as “Inactive”. Further, the “Amax (maximum % activation achieved)” value under setting [1] was “Inactive”.
Consider `N[C@@H](Cc1c[nH]cn1)C(=O)N[C@@H](Cc1ccccc1)C(=O)NCCc1ccccc1` [AB-2-5-4] (H-His-Phe-NHPhenethyl), for which the pEC50 (95% CI in parentheses) is 5.27. Besides, the “Amax (maximum % activation achieved)” value under setting [1] is reported as 177.6 (158.7 to 198.1) %.
Regarding `COc1ccc(CNC(=O)[C@H](N)Cc2cnc[nH]2)cc1` [AB-1-16-2], the “Amax (maximum % activation achieved)” value is given as 703.5 (588.9 to 915.6) %.
For the compound `NC(Cc1c[nH]cn1)C(=O)NCCc1cc2ccccc2[nH]1` (racemic) [(±)PT-1-173 RACEMIC], the “Amax (maximum % activation achieved)” value was 311 (298.6 to 325.7) %.
Turning to `O=C1NC(Cc2c[nH]cn2)C(=O)N2CCCC12` (stereo not shown) [Cyclo(His-Pro)], the “A50 (concentration required to activate Nln by 50%)” value (95% CI in parentheses) is listed as “Inactive”. Also, under setting [1], the “Amax (maximum % activation achieved)” value was “Inactive”.
For `N[C@@H](Cc1c[nH]cn1)C(=O)NCCc1ccc2ccccc2c1` [SR18-1], the “Amax (maximum % activation achieved)” value was 323.7 (310.3 to 337.9) %.
Turning to `N[C@H](Cc1c[nH]cn1)C(=O)NCCc1ccc(C(F)(F)F)cc1` (single isomer, unassigned) [AB-1-8-2], the “Amax (maximum % activation achieved)” value is given as 643 (588.8 to 714) %.
Take `N[C@@H](Cc1c[nH]cn1)C(=O)N1CCCC1` [SR-5-3d]: under setting [1], the “Amax (maximum % activation achieved)” value was 173 (158.5 to 194.1) %.
Take `N[C@@H](Cc1c[nH]cn1)C(=O)N[C@@H](Cc1ccccc1)C(=O)O` (stereo in doubt) [Compound 3, His-Phe]: under “95% CI in parentheses”, the pEC50 is 3.89. Besides, the “Amax (maximum % activation achieved)” value under setting [1] is given as 573 (547.9 to 602.7) % and the “Amax (maximum % activation achieved)” value (100% = normal enzyme turnover, 95% CI in parentheses, listed as His-Phe) is given as 573 (547.9 to 602.7) %.
Turning to `N[C@@H](Cc1c[nH]cn1)C(=O)NCc1ccccc1C(F)(F)F` [DF-10-2], the “Amax (maximum % activation achieved)” value is listed as 334 (313.7 to 357.2) %.
With `N[C@H](Cc1c[nH]cn1)C(=O)NCCc1ccc2ccccc2c1` [SR19-2d], the “Amax (maximum % activation achieved)” value is 339.8 (325.4 to 355.4) %.
In the case of `N[C@@H](Cc1c[nH]cn1)C(=O)Nc1ccccc1` (single isomer, unassigned) [DF-5-2A], the pEC50 (95% CI in parentheses) was 5.11. For the same compound, the “Amax (maximum % activation achieved)” value under setting [1] is 139.8 (124.7 to 158.4) %.
